Laboratory results as given in PubChem BioAssay (NCI).
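Cultured in 96-well plates, cells were exposed to test compound for 48 hours across five concentrations. GI50: concentration for 50% inhibition of growth. The concentration for full growth arrest is given as TGI.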

How the values were obtained:
Experiment in all cases: NCI tumour cell line growth inhibition, 48 h
[1] = test system: CCRF-CEM leukemia
[2] = test system: K-562 leukemia
[3] = test system: KM12 colon
[4] = test system: M14 melanoma
[5] = test system: NCI-H23 lung
[6] = test system: OVCAR-5 ovarian
[7] = test system: OVCAR-8 ovarian
[8] = test system: RPMI-8226 leukemia
[9] = test system: SK-MEL-5 melanoma
[10] = test system: UACC-62 melanoma

Row | SMILES | TGI [1] [µM] | TGI [2] [µM] | TGI [3] [µM] | TGI [4] [µM] | TGI [5] [µM] | TGI [6] [µM] | TGI [7] [µM] | TGI [8] [µM] | TGI [9] [µM] | TGI [10] [µM] | GI50 [1] [µM] | GI50 [2] [µM] | GI50 [3] [µM] | GI50 [4] [µM] | GI50 [5] [µM] | GI50 [7] [µM] | GI50 [8] [µM] | GI50 [9] [µM] | GI50 [10] [µM]
1 | NC(N)=NCCCC(NCc1c2ccccc2[n+]([O-])c2ccccc12)C(=O)O (centres undefined) | 83.3 | > 100 | > 100 | > 100 | > 100 | > 100 | > 100 | 96.2 | > 100 | > 100 | – | – | – | – | – | – | – | – | –
2 | C=CCCCCn1c2ccccc2c2c(C)c3c[n+](C)ccc3c(C)c21 | 2.02 | 1.29 | 1.6 | 2.19 | – | 3.26 | 1.28 | 1.43 | 1.36 | 1.28 | – | – | – | – | – | – | – | – | –
3 | NS(=O)(=O)c1ccc(N=Nc2nc3[nH]cnc(=S)c3[nH]2)cc1 | 4.21 | > 53.1 | > 100 | > 32.6 | 14.2 | > 60.2 | > 100 | 6.53 | 24.8 | 8.72 | – | – | – | – | – | – | – | – | –
4 | C[N+]1(CCCC[N+]2(C)CCCCCCC2)CCCCCCC1 | > 100 | > 100 | > 100 | > 100 | > 100 | > 100 | > 100 | > 100 | > 100 | > 100 | – | – | – | – | – | – | – | – | –
5 | Cc1n(-c2ccccc2)c2c([n+]1Cc1ccc([N+](=O)[O-])cc1)C(=O)c1ccccc1C2=O | 5.46 | 4.64 | 6.54 | 7 | 5.22 | 3.46 | 6.43 | 3.82 | 3.29 | 3.74 | – | – | – | – | – | – | – | – | –
6 | CCN(CC)CCOCC1CCCN2CCCCC12 (centres undefined) | > 100 | > 100 | > 100 | > 100 | > 100 | > 100 | > 100 | > 100 | > 100 | > 100 | – | – | – | – | – | – | – | – | –
7 | Cc1cc(=O)[nH]c(NN2C(Cl)C(=O)C2c2c(O)ccc3ccccc23)n1 (centres undefined) | > 100 | > 100 | 61.5 | 29 | 39.7 | > 100 | > 100 | 53.5 | 29.9 | 47.4 | – | – | – | – | – | – | – | – | –
8 | c1ccc(C2=NN[C@H](c3cn(-c4ccccc4)nc3-c3ccccc3)C2)cc1 | > 100 | > 100 | > 100 | > 100 | > 100 | – | > 100 | > 100 | > 100 | > 100 | > 100 | > 100 | > 100 | 6.46 | 7.21 | 3.64 | > 100 | 7.66 | 6.61
9 | CCCC(=O)[O-].CCCC(=O)[O-].N.N.N.N.[Co+3].[O-][Cl+3]([O-])([O-])[O-] | > 100 | > 100 | > 100 | > 100 | > 100 | > 100 | > 100 | > 100 | > 100 | > 100 | – | – | – | – | – | – | – | – | –
10 | COc1cc(O)c2c(c1O)C(=O)c1cc(C)ncc1C2=O | > 50 | > 50 | > 50 | > 50 | 27.2 | > 50 | > 50 | > 50 | 30 | > 50 | – | – | – | – | – | – | – | – | –
11 | CCCCCCCSCC1OC(n2cnc3c(N)ncnc32)C(O)C1O (centres undefined) | > 100 | > 100 | – | 48.5 | > 100 | > 100 | 54.1 | 69 | 30.8 | – | – | – | – | – | – | – | – | – | –
12 | Nc1nc(Sc2ccc([N+](=O)[O-])cn2)c2[nH]cnc2n1 | > 41.5 | > 100 | > 38.1 | 24.1 | 31.2 | > 100 | > 80.4 | > 100 | 31.2 | 11.6 | – | – | – | – | – | – | – | – | –
13 | Cc1n(CC(C)C)c2c([n+]1CC(=O)c1ccc([N+](=O)[O-])cc1)C(=O)c1ccccc1C2=O | 4.94 | 1.33 | 0.386 | – | < 0.0142 | 0.0698 | 0.476 | 0.757 | < 0.0309 | 0.104 | – | – | – | – | – | – | – | – | –
